From patent US4514404A, “Process for obtaining complex of 3-methoxy-N-methylmorphinan with 7-theophyllineacetic acid (1:2)” (Prodes, S.A., priority 1982, dated 1985)
“And” between values parts separate entries of the source, which are not always exact repeats. Identical values can stand only once. “Also recorded” adds a separate entry of the source.

Legend:
cough = test: antitussive activity: cough induced by sulfuric acid atmosphere (Chen et al. 1960), oral; format: in vivo, guinea pig (male); conditions: for inhibition of the cough (individual animal) / number of coughs after administration (individual animal) / inhibition of the cough, average value: one hour after administration; for inhibition of the cough (individual animal) / number of coughs after administration (individual animal): individual animals
Experimental: This activity has been compared with the activity of codeine and dextromethorphan by the experimental mode of Chen, J.Y.P. and col. (1960), consisting in exciting guinea pigs subjected to an atmosphere of sulfuric acid to cough.
There are used guinea pig males having a weight of 300-400 grs which are treated in respective lots, with codeine (40 mg/kg.; n=6), dextromethorphan (40 mg/kg.; n=6), theophane (20 mg/kg.; n=5) and theophane (40 mg/kg.; n=6), wherein "n" signifies the number of animals tested in the respective lots and the other data in the parentheses refers to the dosage amount, e.g. 40 mg/kg. The numbers of occurrences of coughing of each animal before and one hour after the oral administration of the drug are measured.
In Table I are detailed the results obtained by the experiment, before and after the administration of the drug as well as the percentage of inhibition of the cough.

[1] = tested on: auxotrophic S.typhimurium strains; test: mutagenic effect (Ames); format: cell-based; conditions: six dosages in DMSO, presence and absence of metabolic activation
Excerpt: The possible mutagenic effect of theophane has been evaluated according to the text described by Ames, B. N. and cols (1975) using auxotrophic S.typhimurium strains for the histidine. The product has been studied at six different dosages, dissolved in DMSO, and in the presence and absence of a system of metabolic activation and in front of positive controls.

cardiovascular system = test: cardiovascular activity (technique of Smith, 1961); format: in vivo, guinea pig (male); conditions: 0.5 to 10 mg/kg
Excerpt: The cardiovascular activity (technique of Smith, 1961) and the neuropharmacological activity (Irwin test) of the theophane product have been studied respectively in guinea pigs and rats (males).

[2] = tested on: Sprague-Dawley rats and fetuses of the first generation; test: fetal and teratogenous toxicity, oral during organogenesis; format: in vivo, rat (Sprague-Dawley); conditions: 20, 65 and 130 mg/kg/day oral
[3] = tested on: tracheal chain of guinea pigs; test: bronchodilatory activity in vitro, tracheal chain of guinea pigs (Castillo and de Beer), histamine as bronchoconstrictor; set-up: species or system guinea pig (male); conditions: for time elapsed until obtaining an activity of 50%: 5×10^-4 molar
Excerpt: The bronchodilatory activity "in vitro" of the compound of the present invention has been studied, using the method of tracheal chain of guinea pigs, described by J. C. Castillo and E. J. J. de Beer in Pharmacol.Expt. Therap., 90, 104. The trachea of male guinea pigs having a weight of 250-350 grs were extracted; then the rings are sectioned, always endeavoring that the trachea is bathed by the corresponding perfusion liquid and under oxygenation conditions for joining posteriorly the tracheal rings by means of a silk yarn forming the chain giving response to the drugs to be administered. The chain is placed in the bath of organs fixed to the registering arm of a chymograph. The bath is to be maintained at the constant temperature of 37.5° C. and using, as the liquid, the Krebs-Hanselett solution.
As a bronchoconstrictor drug, there is used histamine at a concentration of 1×10^-5 molar.
The bronchodilatory activity of theophane and theophylline have been compared, for various dosages, and the results obtained are presented in Table II.

Wistar rats = test: subacute toxicity, repeated oral administration over 1 month; format: in vivo, rat (Wistar); conditions: 20, 60 and 120 mg/kg/day oral, both sexes
Experimental: The subacute toxicity of theophane has been studied after repeated oral administrations over a period of 1 month in Wistar rats of both sexes. The theophane dosage used was 20 mg/kg/day, 60 mg/kg/day and 120 mg/kg/day. One lot of control animals received only excipient.

rat = test: acute toxicity in the rat (Litchfield and Wilcoxon); format: in vivo
Excerpt: (§1) The acute toxicity of theophane has been studied orally and i.p. in the mouse and in the rat. The LD50 and the limits of reliance have been determined by the technique of Litchfield and Wilcoxon. Table III summarizes the values of the obtained LD50, as well as of LD0.

mouse = test: acute toxicity in the mouse (Litchfield and Wilcoxon); format: in vivo
Excerpt: as §1

[4] = 40 mg/kg oral, n=6, codeine p < 0.001, dextromethorphan and theophane p < 0.005

Question: For COc1ccc2c3c1O[C@H]1[C@@H](O)C=C[C@H]4[C@@H](C2)N(C)CC[C@@]341 [Codeine, reference compound], which “inhibition of the cough (individual animal)” value (cough; 40 mg/kg oral) is on record?
Answer: 71.4% and 100.0% and 81.8%

Question: And the “number of coughs after administration (individual animal)” value (from here on “number of coughs after administration”) (cough; 40 mg/kg oral)?
Answer: 2 and 0

Question: What about the “inhibition of the cough, average value” (cough; [4]) of the same compound?
Answer: 92.2 ± 12.5%

Question: For COc1ccc2c(c1)[C@]13CCCC[C@@H]1[C@H](C2)N(C)CC3 [Dextromethorphan, reference compound], which “inhibition of the cough (individual animal)” value (cough; 40 mg/kg oral) is on record?
Answer: 33.3% and 60.0% and 100.0% and 75.0% and 50.0%

Question: And the “number of coughs after administration” value (cough; 40 mg/kg oral)?
Answer: 4 and 6 and 0 and 1

Question: What about the “inhibition of the cough, average value” (cough; [4]) of the same compound?
Answer: 69.7 ± 27.0%

Question: COc1ccc2c(c1)[C@@]13CCCC[C@H]1[C@@H](C2)N(C)CC3.Cn1c(=O)c2c(ncn2CC(=O)O)n(C)c1=O.Cn1c(=O)c2c(ncn2CC(=O)O)n(C)c1=O [Theophane, complex of 3-methoxy-N-methylmorphinan with 7-theophyllineacetic acid (1:2)] was tested. Which mutagenic activity [1] did it give?
Answer: does not have any mutagenic activity

Question: And the reversion increase [1]?
Answer: No reversion increase could be observed

Question: And the “effects on the cardiovascular system” value (cardiovascular system)?
Answer: do not produce effects on the cardiovascular system

Question: What about the teratogenous effects [2] of the same compound?
Answer: does not induce teratogenous effects

Question: And the “toxic effects to gestating females and their offspring” value [2]?
Answer: does not produce toxic effects to the gestating females and their offspring

Question: What about the “bronchodilatory activity in vitro compared with theophylline (in words)” value [3] of the same compound?
Answer: bronchodilatory activity "in vitro" at lower concentrations than theophylline

Question: What about the bronchodilatory activity ([3]; 1 × 10^-3 molar, 1000 µM) of the same compound?
Answer: 100%

Question: What about the bronchodilatory activity ([3]; 1 × 10^-4 molar, 100 µM) of the same compound?
Answer: 54.6%

Question: What about the bronchodilatory activity ([3]; 1 × 10^-5 molar, 10 µM) of the same compound?
Answer: 0%

Question: What about the bronchodilatory activity ([3]; 2 × 10^-4 molar, 200 µM) of the same compound?
Answer: 37.5%

Question: And the “time elapsed until obtaining an activity of 50%” value [3]?
Answer: 280 s

Question: What about the bronchodilatory activity ([3]; 5 × 10^-4 molar, 500 µM) of the same compound?
Answer: 85.3%

Question: And the bronchodilatory activity ([3]; 5 × 10^-5 molar, 50 µM)?
Answer: 8.3%

Question: And the “subacute toxicity (mortality, weight, diet consumption, hematic, biochemical, urinary parameters, histopathology)” value (Wistar rats)?
Answer: null toxicity

Question: What about the LD0 (rat; i.p.) of the same compound?
Answer: 156.4 mg/kg

Question: And the LD0 (rat; oral)?
Answer: 204.4 mg/kg

Question: And the LD0 (mouse; i.p.)?
Answer: 102.3 mg/kg

Question: And the LD0 (mouse; oral)?
Answer: 182.2 mg/kg

Question: And the “inhibition of the cough (individual animal)” value (cough; 20 mg/kg oral)?
Answer: 33.3% and 28.57% and 66.6% and 60.0%

Question: And the “number of coughs after administration” value (cough; 20 mg/kg oral)?
Answer: 4 and 10 and 1 and 2

Question: And the “inhibition of the cough, average value” (cough; 20 mg/kg oral, n=5, p < 0.005)?
Answer: 44.35 ± 17.5%

Question: And the “inhibition of the cough (individual animal)” value (cough; 40 mg/kg oral)?
Answer: 60.0% and 72.2% and 30.7% and 100.0%

Question: What about the “number of coughs after administration” value (cough; 40 mg/kg oral) of the same compound?
Answer: 2 and 5 and 9 and 0 and 4

Question: What about the “inhibition of the cough, average value” (cough; [4]) of the same compound?
Answer: 70.5 ± 26.6%

Question: And the “antitussive activity (in words)” value (cough; oral, 20 and 40 mg/kg, guinea pigs)?
Answer: potent antitussive activity; also recorded: antitussive activity which is significant with regard to its proper control

Question: And the “antitussive activity based on the 3-methoxy-N-methylmorphinan content, compared with dextromethorphan” value (cough; referring to the weight index, 40 mg/kg)?
Answer: greater antitussive activity

Question: With Cn1c(=O)c2[nH]cnc2n(C)c1=O [Theophylline] as the compound, how does the “time elapsed until obtaining an activity of 50%” value [3] read?
Answer: 180 s

Question: And the inhibition at 1000 µM ([3]; Cavia porcellus, 1 × 10^-3 molar)?
Answer: 100%

Question: What about the inhibition at 100 µM ([3]; Cavia porcellus, 1 × 10^-4 molar) of the same compound?
Answer: 10.4%

Question: What about the inhibition at 10 µM ([3]; Cavia porcellus, 1 × 10^-5 molar) of the same compound?
Answer: 0%

Question: What about the inhibition at 200 µM ([3]; Cavia porcellus, 2 × 10^-4 molar) of the same compound?
Answer: 30%

Question: What about the inhibition at 20 µM ([3]; Cavia porcellus, 2 × 10^-5 molar) of the same compound?
Answer: 6.25%

Question: And the inhibition at 500 µM ([3]; Cavia porcellus, 5 × 10^-4 molar)?
Answer: 59.1%
